# Assay results reported in patent US11596692B1 (Incyte Corporation, priority 2018, dated 2023).
# Read-outs that look alike come from different tables or passages of the source.
# How the values were obtained:
# PD-L1 [1] = biological target: T1, PD-L1 (Homo sapiens (Human), UniProt Q9NZQ7); assay: PD-L1 surface levels on HEK293T STING reporter cells, low PD-L1; assay type: cell-based
# Protocol: (§1) To determine PD-L1 expression on HEK cells after treatment of PD-L1-small molecule conjugated STING agonists, cells were harvested at 20 hours post-treatment. Single cell suspensions were then stained with phycoerythrin-conjugated anti-PD-L1 antibody (BD Bioscience), and the PD-L1 expression were then analyzed by flow cytometry. Mean fluorescence intensity was used as the relative level of surface PD-L1 expression on cells (FIG. 1 and Table 6).
# (§2) Also, cells were stained with PE-conjugated anti-human PD-L1 antibody to determine surface PD-L1 expression. Cell acquisition was performed on BD LSRFortessa X-20 (BD Biosciences). Data was analyzed using FlowJo software. IC50 values were calculated using Prism Software.
# [2] = system: IRF3 activation in PD-L1 low HEK293T STING reporter cell line; assay: IRF3 activation in HEK293T STING reporter cells, low PD-L1; assay type: cell-based, human; settings: 20 hours, read-out: IRF Activation EC50 (nM), Low PD-L1
# Protocol: (§3) HEK293T STING reporter cell line was purchased from Invivogen and expressed low level of PD-L1. This cell line was then engineered at Incyte Research Institute to overexpress human PD-L1. Both PD-L1 high and PD-L1 low HEK293T cell lines were plated at 100,000 cells/100 μL/well in 10% fetal calf serum-containing DMEM culture medium in a 96-well flat bottom plate. Serial dilutions of PD-L1 small molecule-conjugated STING agonists were then added to the corresponding wells, and incubated for 20 hours at 37° C. In a competition study setting, 1 μM of a PD-L1 small molecule was added in the corresponding wells to compete with the binding of PD-L1 small molecule-conjugated STING agonists. At the end of the incubation, the culture supernatants were carefully removed from each well, and the amount of IRF3 activation was determined by adding Quanti-Blue substrate in accordance with the manufacturer's protocol.
# (§4) 293T-Dual hSTING-R232 (ISG/KI-IFNb) cells that were generated from 293T-Dual Null (ISG/KI-IFNb) cells by stable transfection of the R232 isoform of human STING were purchased from Invivogen (Invivogen #293d-r232).
# (§5) This cell line expresses an ISRE-inducible SEAP (secreted embryonic alkaline phosphatase) reporter construct, which monitors the activation of interferon regulatory factor (IRF) and its binding to ISRE (IFN-stimulated response elements). These reporter cells express low level of PD-L1. Human PD-L1 was then overexpressed in these cells through stable transfection.
# (§6) These 293T-Dual hSTING-R232 reporter cells as well as293T-Dual hSTING-R232 reporter cells overexpressing huPD-L1 were treated with various concentrations of STING compounds for 20 hours. After 20 hours, interferon regulatory factor (IRF) activity was assessed by measuring SEAP levels in the supernatant using QUNTI-Blue. EC50 values were generated by curve fit in Prism software.
# PD-L1 [3] = biological target: T1, PD-L1; assay: PD-L1 surface levels on HEK293T STING reporter cells, high PD-L1; assay type: cell-based
# Protocol: as §1, §2
# [4] = system: IRF3 activation in PD-L1 high HEK293T STING reporter cell line; assay: IRF3 activation in HEK293T STING reporter cells, high PD-L1; assay type: cell-based, human; settings: for EC50: 20 hours; for Potency shift: with compound P27 (1 μM) versus no competition
# Protocol: as §3, §4, §5, §6
# PD-L1 [5] = biological target: T1, PD-L1; assay: Direct method for PD-L1 internalization in CHO-PD-L1 cells; assay type: cell-based; settings: 40 nM pHrodo-labelled antibody, 5 to 16 hours, versus IgG control
# Protocol: Endocytosis or internalization of PD-L1 was measured by two different methods, one direct and the other indirect. In the direct method, an anti PD-L1 antibody labeled with a pH sensitive fluorophore is incubated with PD-L1 expressing cells. Upon internalization and trafficking of the antibody-PD-L1 complex to low pH endosomes, fluorescence is emitted. In the indirect method, cell surface PD-L1 is measured using an anti PD-L1 antibody after incubation with a compound to determine remaining, non-internalized receptor.
# For the direct measurement, biotinylated anti-PD-L1 antibody (BPS Biosciences) or Atezolizumab, biotinylated with a 20-fold excess of biotin using the EZ-Link™ Sulfo-NHS-LC-Biotin reagents (ThermoFisher), were labeled with pHrodo™ Red Avidin (Life Technologies) conjugate. Equimolar solutions of the antibody and pHrodo™ Red avidin (4.2 uM each) were incubated on ice for 2 hours in the dark in a buffer composed of 40 mM Tris-HCl, pH 8.0, 110 mM NaCl, 2.2 mM KCl, 20% glycerol, and 1% bovine serum albumin The mixture was centrifuged for 1 minute at 1000 rpm, and the clarified supernatant was used in subsequent assays. […] The cells were analyzed by flow cytometry, and internalized antibody-receptor complex was detected using a C6 Accuri Flow Cytometer (excitation with […] and emission collected with a 585/40 bandpass filter).
# [6] = system: IFNβ production in CD11b+ monocytes; assay: IFN-beta induction in CD11b+ monocytes from healthy donor PBMC; assay type: cell-based, human; settings: CD11b+ monocyte cultures, 20 hours, mean ± SEM
# Protocol: (§7) CD11b^+ cells were isolated from healthy PBMCs as well as Pleural effusion samples using Miltenyi isolation kit according to manufacturer's protocol. Cells were seeded in 96 well plates at the density of 300,000 cells/wells, and then treated with various concentrations of compounds for 20 hours. After 20 hours, IFN-beta secretion levels were evaluated in the culture supernatants by MSD singleplex assay. EC50 values were calculated using Prism software.
# (§8) Different naked STING agonisst and PD-L1-targeted small molecule-STING agonist conjugates were added to CD11b^+ monocytes cultures isolated from healthy donor blood or lung cancer patients' pleural effusions. Culture supernatants were collected 20 hours later and IFNβ production were determined using MSD singleplex assay.
# [7] = system: IFNβ production in CD11b+ monocytes; assay: IFN-beta induction in CD11b+ monocytes from lung cancer pleural effusions; assay type: cell-based, human; settings: CD11b+ monocyte cultures, lung cancer pleural effusion, 20 hours; read-out: EC50 for IFNβ induction, Cancer patient
# Protocol: as §7, §8
# [8] = high PD-L1 cells, read-out: IRF Activation EC50 (nM), High PD-L1
# [9] = no competition, read-out: IRF Activation EC50 (nM), No competition
# [10] = read-out: IRF Activation EC50 (nM), With compound P27 (1 μM), competition with compound P27 1 μM
# T1 sequence (Q9NZQ7 19-290): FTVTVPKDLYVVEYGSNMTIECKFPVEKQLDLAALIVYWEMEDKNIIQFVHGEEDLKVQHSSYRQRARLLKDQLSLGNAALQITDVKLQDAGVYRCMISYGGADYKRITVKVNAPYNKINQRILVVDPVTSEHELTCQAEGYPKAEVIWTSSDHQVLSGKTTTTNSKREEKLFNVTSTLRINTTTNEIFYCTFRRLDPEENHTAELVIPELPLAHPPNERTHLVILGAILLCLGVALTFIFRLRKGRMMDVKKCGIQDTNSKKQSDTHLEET
PD-L1 internalization (direct method) (PD-L1 [5]),Compound,IC50 (PD-L1 [1]) [nM],EC50 [2] [nM],IC50 (PD-L1 [3]) [nM],"EC50 [4, 8] [nM]","EC50 [4, 9] [nM]","EC50 [4, 10] [nM]",Potency shift [4],EC50 [6] [nM],EC50 [7] [nM]
,CCn1nc(C)cc1C(=O)Nc1nc2cc(C(N)=O)cc(OC)c2n1C/C=C/Cn1c(NC(=O)c2cc(C)nn2CC)nc2cc(C(N)=O)cc(OCCCNC(=O)CCNC(=O)OCc3ccc(NC(=O)[C@H](CCCNC(N)=O)NC(=O)[C@@H](NC(=O)CCCN4CCc5c(nc(C(=O)Nc6cccc(-c7cccc(NC(=O)c8nc9c(n8C)CCN(CCCC(=O)O)C9)c7Cl)c6Cl)n5C)C4)C(C)C)cc3)c21 [Example 2],> 1000,50 to 200,< 50,< 50,< 50,50 to 200,>20,,
,CCn1nc(C)cc1C(=O)Nc1nc2cc(C(N)=O)cc(OC)c2n1C/C=C/Cn1c(NC(=O)c2cc(C)nn2CC)nc2cc(C(N)=O)cc(OCCCNC(=O)CCNC(=O)OCCSSC[C@H](NC(=O)[C@H](CC(=O)O)NC(=O)[C@H](CC(=O)O)NC(=O)[C@H](CCCNC(=N)N)NC(=O)[C@H](CC(=O)O)NC(=O)CCCN3CCc4c(nc(C(=O)Nc5cccc(-c6cccc(NC(=O)c7nc8c(n7C)CCN(CCCC(=O)O)C8)c6Cl)c5Cl)n4C)C3)C(=O)O)c21 [Example 5],> 1000,200 to 1000,< 50,< 50,< 50,200 to 1000,>20,,
dos not cause PD-L1 internalization,Atezolizumab,,,,,,,,,
,CCn1nc(C)cc1C(=O)Nc1nc2cc(C(N)=O)cc(OC)c2n1C/C=C/Cn1c(NC(=O)c2cc(C)nn2CC)nc2cc(C(N)=O)cc(OCCCNC(=O)[C@H](CC(=O)O)NC(=O)[C@H](CC(=O)O)NC(=O)[C@H](CCCNC(=N)N)NC(=O)[C@H](CC(=O)O)NC(=O)CCCN3CCc4c(nc(C(=O)Nc5cccc(-c6cccc(NC(=O)c7nc8c(n7C)CCN(CCCC(=O)O)C8)c6Cl)c5Cl)n4C)C3)c21 [Example 1],> 1000,200 to 1000,< 50,< 50,< 50,200 to 1000,>100,5030 ± 1260,406
,CCn1nc(C)cc1C(=O)Nc1nc2cc(C(N)=O)cc(OCCCNC(=O)[C@H](CC(=O)O)NC(=O)[C@H](CC(=O)O)NC(=O)[C@H](CCCNC(=N)N)NC(=O)[C@H](CC(=O)O)NC(=O)CCCN3CCc4c(nc(C(=O)Nc5cccc(-c6cccc(NC(=O)c7nc8c(n7C)CCN(CCCC(=O)O)C8)c6Cl)c5Cl)n4C)C3)c2n1C/C=C/Cn1c2nc(-c3cc(C)nn3CC)ncc2c2cc(C(N)=O)cc(OC)c21 [Example 7],,50 to 200,< 50,< 50,,,,2010 ± 308,643
